Data from publication doi:10.1101/2023.10.20.563248v1 (biorxiv, 2023).

Columns and labels:
Conditions in all cases: 1 µM; inhibitor
ABL1 = ABL1 (Homo sapiens, UniProt P00519)
FGR = FGR (Homo sapiens, UniProt P09769)
RET = RET (Homo sapiens, UniProt P07949)
MARK4 = MARK4 (Homo sapiens, UniProt Q96L34)
CK1g2 = CK1g2 (Homo sapiens, UniProt P78368)
VRK2 = VRK2 (Homo sapiens, UniProt Q86Y07)
TRKC = TRKC (Homo sapiens, UniProt Q16288)
ZAP70 = ZAP70 (Homo sapiens, UniProt P43403)
HCK = HCK (Homo sapiens, UniProt P08631)
PDK1 = PDK1 (Homo sapiens, UniProt O15530)
EPHA1 = EPHA1 (Homo sapiens, UniProt P21709)
NEK9 = NEK9 (Homo sapiens, UniProt Q8TD19)
CHK1 = CHK1 (Homo sapiens, UniProt O14757)
Chain of CHK1 (O14757 whole entry): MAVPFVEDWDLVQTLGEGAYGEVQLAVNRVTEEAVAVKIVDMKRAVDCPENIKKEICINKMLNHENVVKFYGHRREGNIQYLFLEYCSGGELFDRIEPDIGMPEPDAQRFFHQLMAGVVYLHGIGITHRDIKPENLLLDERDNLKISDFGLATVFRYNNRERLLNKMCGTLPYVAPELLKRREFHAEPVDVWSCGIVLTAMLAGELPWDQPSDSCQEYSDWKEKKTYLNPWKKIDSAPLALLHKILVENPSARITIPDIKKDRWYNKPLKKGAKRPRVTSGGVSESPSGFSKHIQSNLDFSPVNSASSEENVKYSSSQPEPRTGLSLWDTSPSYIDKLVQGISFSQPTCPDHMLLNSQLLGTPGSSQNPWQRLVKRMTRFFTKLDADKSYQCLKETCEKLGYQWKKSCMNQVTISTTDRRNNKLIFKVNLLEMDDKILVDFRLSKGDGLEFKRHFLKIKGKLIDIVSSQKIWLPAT

TEC = TEC (Homo sapiens, UniProt P42680)
MST2 = MST2 (Homo sapiens, UniProt Q13188)
Chain of MST2 (Q13188 whole entry): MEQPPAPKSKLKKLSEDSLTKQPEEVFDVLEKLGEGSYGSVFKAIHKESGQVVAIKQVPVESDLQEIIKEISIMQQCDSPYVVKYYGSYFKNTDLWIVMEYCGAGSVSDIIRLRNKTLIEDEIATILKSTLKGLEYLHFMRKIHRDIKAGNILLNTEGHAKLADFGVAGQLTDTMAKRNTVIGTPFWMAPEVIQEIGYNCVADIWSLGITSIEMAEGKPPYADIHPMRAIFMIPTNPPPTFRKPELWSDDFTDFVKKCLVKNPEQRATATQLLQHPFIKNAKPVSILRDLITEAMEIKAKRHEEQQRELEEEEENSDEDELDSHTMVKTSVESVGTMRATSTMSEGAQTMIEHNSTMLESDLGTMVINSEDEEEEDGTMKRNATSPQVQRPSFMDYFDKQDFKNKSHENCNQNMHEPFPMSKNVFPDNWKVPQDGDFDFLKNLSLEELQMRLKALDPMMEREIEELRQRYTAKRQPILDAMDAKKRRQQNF

PKCd = PKCd (Homo sapiens, UniProt Q05655)
EPHB4 = EPHB4 (Homo sapiens, UniProt P54760)
DMPK = DMPK (Homo sapiens, UniProt Q09013)
Chain of DMPK (Q09013 whole entry): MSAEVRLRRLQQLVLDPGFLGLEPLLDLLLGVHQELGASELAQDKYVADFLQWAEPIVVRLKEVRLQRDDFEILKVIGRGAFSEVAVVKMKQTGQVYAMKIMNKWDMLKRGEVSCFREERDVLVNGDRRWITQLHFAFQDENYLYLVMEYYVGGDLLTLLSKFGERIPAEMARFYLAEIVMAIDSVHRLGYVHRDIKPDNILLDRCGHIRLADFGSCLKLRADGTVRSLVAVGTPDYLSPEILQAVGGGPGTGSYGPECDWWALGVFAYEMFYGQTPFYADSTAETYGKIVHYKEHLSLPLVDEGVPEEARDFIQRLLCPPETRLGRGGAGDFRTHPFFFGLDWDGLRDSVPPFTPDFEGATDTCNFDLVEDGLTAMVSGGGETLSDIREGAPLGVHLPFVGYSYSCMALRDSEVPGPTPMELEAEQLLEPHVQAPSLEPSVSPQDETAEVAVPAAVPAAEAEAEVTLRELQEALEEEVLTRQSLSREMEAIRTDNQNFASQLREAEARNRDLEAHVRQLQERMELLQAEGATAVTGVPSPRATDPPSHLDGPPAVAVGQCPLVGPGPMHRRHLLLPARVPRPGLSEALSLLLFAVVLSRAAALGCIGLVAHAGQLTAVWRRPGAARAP

DYRK2 = DYRK2 (Homo sapiens, UniProt Q92630)
BMPR1A = BMPR1A (Homo sapiens, UniProt P36894)
Chain of BMPR1A (P36894 whole entry): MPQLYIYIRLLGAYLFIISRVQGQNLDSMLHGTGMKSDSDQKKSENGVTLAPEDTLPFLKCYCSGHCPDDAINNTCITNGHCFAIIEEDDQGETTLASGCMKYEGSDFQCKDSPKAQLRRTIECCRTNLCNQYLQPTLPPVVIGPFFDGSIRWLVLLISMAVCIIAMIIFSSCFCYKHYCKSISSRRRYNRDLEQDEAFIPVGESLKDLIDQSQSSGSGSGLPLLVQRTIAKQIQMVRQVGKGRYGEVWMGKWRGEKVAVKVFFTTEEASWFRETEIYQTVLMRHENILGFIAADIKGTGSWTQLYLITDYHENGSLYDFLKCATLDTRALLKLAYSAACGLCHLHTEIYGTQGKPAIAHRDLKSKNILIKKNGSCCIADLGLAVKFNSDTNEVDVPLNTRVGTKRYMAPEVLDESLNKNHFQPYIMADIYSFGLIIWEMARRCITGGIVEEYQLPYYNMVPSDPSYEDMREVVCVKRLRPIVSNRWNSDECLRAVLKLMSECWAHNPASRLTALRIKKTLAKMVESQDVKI

WNK3 = WNK3 (Homo sapiens, UniProt Q9BYP7)
CDK20/CycT1 = CDK20/CycT1 (Homo sapiens, UniProt Q8IZL9)
HIPK4 = HIPK4 (Homo sapiens, UniProt Q8NE63)
RIPK5 = RIPK5 (Homo sapiens, UniProt Q6XUX3)
EIF2AK2 = EIF2AK2 (Homo sapiens, UniProt P19525)
AurA = AurA (Homo sapiens, UniProt O14965)
NEK2 = NEK2 (Homo sapiens, UniProt P51955)
CK2a2 = CK2a2 (Homo sapiens, UniProt P19784)
Chain of CK2a2 (P19784 whole entry): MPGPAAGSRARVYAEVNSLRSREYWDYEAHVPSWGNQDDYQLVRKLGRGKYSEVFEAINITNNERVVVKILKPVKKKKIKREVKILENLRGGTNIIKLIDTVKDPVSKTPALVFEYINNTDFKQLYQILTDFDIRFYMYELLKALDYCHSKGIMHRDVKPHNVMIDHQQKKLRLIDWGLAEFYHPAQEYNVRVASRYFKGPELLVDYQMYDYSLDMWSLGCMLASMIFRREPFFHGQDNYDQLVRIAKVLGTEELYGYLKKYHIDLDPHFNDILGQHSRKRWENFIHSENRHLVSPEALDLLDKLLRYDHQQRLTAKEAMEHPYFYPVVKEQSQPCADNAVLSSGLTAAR

ROCK2 = ROCK2 (Homo sapiens, UniProt O75116)
CDK20 = CDK20 (Homo sapiens, UniProt Q8IZL9)
Chain of CDK20 (Q8IZL9 whole entry): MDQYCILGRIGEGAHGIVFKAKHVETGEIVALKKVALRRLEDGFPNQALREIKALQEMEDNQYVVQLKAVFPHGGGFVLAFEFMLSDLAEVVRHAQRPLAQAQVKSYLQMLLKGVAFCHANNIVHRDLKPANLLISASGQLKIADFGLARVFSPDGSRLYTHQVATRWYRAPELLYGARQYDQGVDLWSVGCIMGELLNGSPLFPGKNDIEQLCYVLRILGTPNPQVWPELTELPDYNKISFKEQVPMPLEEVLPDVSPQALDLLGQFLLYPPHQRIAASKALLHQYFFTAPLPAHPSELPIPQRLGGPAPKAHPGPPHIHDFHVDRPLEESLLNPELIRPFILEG

TTBK2 = TTBK2 (Homo sapiens, UniProt Q6IQ55)

Chain of CK1g2 (P78368 whole entry): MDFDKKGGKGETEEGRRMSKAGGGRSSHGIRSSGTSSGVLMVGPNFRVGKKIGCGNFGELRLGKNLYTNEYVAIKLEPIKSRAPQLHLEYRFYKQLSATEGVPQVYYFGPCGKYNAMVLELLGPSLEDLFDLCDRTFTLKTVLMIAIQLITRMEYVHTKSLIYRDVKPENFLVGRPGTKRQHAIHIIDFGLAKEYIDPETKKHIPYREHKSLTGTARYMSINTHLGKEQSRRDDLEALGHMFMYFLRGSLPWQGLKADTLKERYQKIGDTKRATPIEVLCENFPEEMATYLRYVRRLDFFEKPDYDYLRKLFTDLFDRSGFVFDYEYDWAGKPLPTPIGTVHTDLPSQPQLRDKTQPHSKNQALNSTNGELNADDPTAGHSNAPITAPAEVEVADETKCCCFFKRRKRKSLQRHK
Chain of ZAP70 (P43403 whole entry): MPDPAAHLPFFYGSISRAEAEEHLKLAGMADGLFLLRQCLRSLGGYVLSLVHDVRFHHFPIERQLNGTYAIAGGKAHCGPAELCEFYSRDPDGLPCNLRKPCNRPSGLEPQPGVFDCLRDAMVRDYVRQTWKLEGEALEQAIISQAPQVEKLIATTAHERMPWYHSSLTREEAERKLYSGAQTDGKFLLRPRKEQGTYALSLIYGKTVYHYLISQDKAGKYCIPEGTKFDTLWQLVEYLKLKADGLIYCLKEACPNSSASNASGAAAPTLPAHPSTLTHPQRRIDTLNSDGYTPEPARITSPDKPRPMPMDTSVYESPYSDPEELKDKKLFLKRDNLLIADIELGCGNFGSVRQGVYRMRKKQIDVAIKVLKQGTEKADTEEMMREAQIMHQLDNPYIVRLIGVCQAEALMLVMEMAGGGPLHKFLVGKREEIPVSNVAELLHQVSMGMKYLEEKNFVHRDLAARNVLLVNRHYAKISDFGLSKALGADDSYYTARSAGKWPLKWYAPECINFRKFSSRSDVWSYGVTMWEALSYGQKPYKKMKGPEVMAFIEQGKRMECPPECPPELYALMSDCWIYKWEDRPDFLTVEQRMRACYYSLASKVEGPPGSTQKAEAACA
Chain of ABL1 (P00519 whole entry): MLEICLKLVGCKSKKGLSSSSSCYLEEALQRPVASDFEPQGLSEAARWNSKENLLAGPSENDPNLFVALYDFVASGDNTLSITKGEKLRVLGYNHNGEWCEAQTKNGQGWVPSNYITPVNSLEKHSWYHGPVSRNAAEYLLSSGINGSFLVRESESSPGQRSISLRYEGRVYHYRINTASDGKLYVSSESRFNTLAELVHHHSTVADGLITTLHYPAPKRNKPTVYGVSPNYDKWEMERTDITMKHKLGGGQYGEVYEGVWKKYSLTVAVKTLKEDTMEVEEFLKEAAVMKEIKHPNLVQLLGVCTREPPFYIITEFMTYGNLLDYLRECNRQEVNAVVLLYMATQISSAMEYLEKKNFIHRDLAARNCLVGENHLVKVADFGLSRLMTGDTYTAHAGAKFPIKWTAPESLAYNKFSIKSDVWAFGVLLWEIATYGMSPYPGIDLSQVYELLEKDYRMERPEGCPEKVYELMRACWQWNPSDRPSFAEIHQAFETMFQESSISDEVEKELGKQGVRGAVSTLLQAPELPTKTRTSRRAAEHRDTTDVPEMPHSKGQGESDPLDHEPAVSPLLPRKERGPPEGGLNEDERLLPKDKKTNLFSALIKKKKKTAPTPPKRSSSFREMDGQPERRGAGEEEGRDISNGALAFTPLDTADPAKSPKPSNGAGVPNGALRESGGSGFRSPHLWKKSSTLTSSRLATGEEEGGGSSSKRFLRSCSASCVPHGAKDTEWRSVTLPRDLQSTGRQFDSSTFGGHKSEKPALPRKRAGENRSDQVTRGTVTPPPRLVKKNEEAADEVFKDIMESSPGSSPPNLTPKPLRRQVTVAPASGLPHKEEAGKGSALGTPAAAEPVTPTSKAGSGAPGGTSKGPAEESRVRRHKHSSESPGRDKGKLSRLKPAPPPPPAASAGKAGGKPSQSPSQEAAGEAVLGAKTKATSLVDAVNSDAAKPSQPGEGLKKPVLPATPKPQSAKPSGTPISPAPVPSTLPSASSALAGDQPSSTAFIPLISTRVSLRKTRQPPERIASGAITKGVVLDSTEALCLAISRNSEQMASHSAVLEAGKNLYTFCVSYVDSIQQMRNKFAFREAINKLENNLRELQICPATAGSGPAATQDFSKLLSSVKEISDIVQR

21c Remaining activity, percent of control [%] (ABL1): 106.1%
21c Remaining activity, percent of control [%] (FGR): 75.3%
21c Remaining activity, percent of control [%] (RET): 122.5%
21c Remaining activity, percent of control [%] (MARK4): 100.1%
21c Remaining activity, percent of control [%] (CK1g2): 109.6%
21c Remaining activity, percent of control [%] (VRK2): 96.9%
21c Remaining activity, percent of control [%] (TRKC): 102.0%
21c Remaining activity, percent of control [%] (ZAP70): 108.6%
21c Remaining activity, percent of control [%] (HCK): 94.0%
21c Remaining activity, percent of control [%] (PDK1): 99.5%
21c Remaining activity, percent of control [%] (EPHA1): 99.3%
21c Remaining activity, percent of control [%] (CHK1): 112.0%
21c Remaining activity, percent of control [%] (TEC): 91.4%
21c Remaining activity, percent of control [%] (MST2): 95.6%
21c Remaining activity, percent of control [%] (PKCd): 91.4%
21c Remaining activity, percent of control [%] (EPHB4): 86.1%
21c Remaining activity, percent of control [%] (DMPK): 94.3%
21c Remaining activity, percent of control [%] (DYRK2): 91.4%
21c Remaining activity, percent of control [%] (BMPR1A): 108.3%
21c Remaining activity, percent of control [%] (WNK3): 98.5%
21c Remaining activity, percent of control [%] (CDK20/CycT1): 89.1%
21c Remaining activity, percent of control [%] (HIPK4): 115.2%
21c Remaining activity, percent of control [%] (RIPK5): 122.0%
21c Remaining activity, percent of control [%] (EIF2AK2): 75.1%
21c Remaining activity, percent of control [%] (AurA): 83.6%
21c Remaining activity, percent of control [%] (NEK2): 93.5%
21c Remaining activity, percent of control [%] (CK2a2): 85.6%
21c Remaining activity, percent of control [%] (ROCK2): 89.7%
21c Remaining activity, percent of control [%] (CDK20): 84.4%
21c Remaining activity, percent of control [%] (TTBK2): 109.9%
SMILES: O=C1NCCCCCNc2nc(c3ccccc3n2)Nc2cc1[nH]n2 [21c, (Z)-3^1H-2,5,11-triaza-1(4,2)-quinazolina-3(3,5)-pyrazolacycloundecaphan-4-one]
21c Remaining activity, percent of control [%] (NEK9): 109.8%
